The results in this text go back to patent US9777005B2 (Takeda Pharmaceutical Company Limited, priority 2012, dated 2017).

For the assay, the target named is T1, human M1 receptor (hCHRM1) (Homo sapiens, UniProt P11229).
T1 construct: expressed in transfected cells; host or cells: CHO-K1
T1 sequence (P11229 1-460): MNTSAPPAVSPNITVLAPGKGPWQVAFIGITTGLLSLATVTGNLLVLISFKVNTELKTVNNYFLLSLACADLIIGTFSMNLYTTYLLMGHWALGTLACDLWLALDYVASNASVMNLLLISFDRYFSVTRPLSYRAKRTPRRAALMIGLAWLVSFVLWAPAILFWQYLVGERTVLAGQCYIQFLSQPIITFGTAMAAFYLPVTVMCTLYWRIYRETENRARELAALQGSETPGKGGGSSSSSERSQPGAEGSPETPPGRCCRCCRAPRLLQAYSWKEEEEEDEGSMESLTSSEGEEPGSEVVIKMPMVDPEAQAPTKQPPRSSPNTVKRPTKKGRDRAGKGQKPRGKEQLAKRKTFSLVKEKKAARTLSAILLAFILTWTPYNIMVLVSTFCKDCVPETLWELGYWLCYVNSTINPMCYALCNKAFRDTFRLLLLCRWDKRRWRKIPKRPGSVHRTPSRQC
Briefly: Measurement of M1 receptor positive allosteric modulator (M1PAM) activity, calcium fluorescence (FLIPRtetra) in CHO-K1 cells in the presence of acetylcholine at EC20. Type of assay: cell-based. Conditions: in the presence of acetylcholine at EC20 (final 0.6 nM), CHO-K1 cells expressing hCHRM1; for EC50: inflection point of M1PAM activity, read-out: IP value; for activity (%) at 10 μM: test compound 10 μM. The method in brief: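 CHO-K1 cells expressing human M1 were loaded with Fluo-4 AM, and compound was added with acetylcholine at EC20 (final 0.6 nM). Calcium fluorescence was read on FLIPRtetra for 1 min. Activity was normalized to 1 μM acetylcholine (100%) and DMSO (0%), and the curve inflection point was reported as IP.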

For the compound `O=C1c2c(cccc2O[C@@H]2CCOC[C@H]2O)CN1Cc1c(F)cc(F)cc1F` (single isomer, unassigned) [Example 318, 1,5-anhydro-2-deoxy-3-O-(3-oxo-2-(2,4,6-trifluorobenzyl)-2,3-dihydro-1H-isoindol-4-yl)-threo-pentitol], the EC50 is 26 nM and the “activity (%) at 10 μM” value was determined as 99%.
Taken in the same sequence, the figures for `O=C1c2c(ccnc2O[C@@H]2CCCC[C@H]2O)CN1Cc1cc(F)ccc1F` (single isomer, unassigned) [Example 319, 2-(2,5-difluorobenzyl)-4-((trans-2-hydroxycyclohexyl)oxy)-1,2-dihydro-3H-pyrrolo[3,4-c]pyridin-3-one] were 9.1 nM and 104%.
The matching figures for `O=C1c2c(ccnc2O[C@@H]2CCCC[C@H]2O)CN1Cc1cccc(F)c1` (single isomer, unassigned) [Example 321, 2-(3-fluorobenzyl)-4-((trans-2-hydroxycyclohexyl)oxy)-1,2-dihydro-3H-pyrrolo[3,4-c]pyridin-3-one]: 32 nM and 104%.
Consider `Cn1cc(-c2ccc(CN3Cc4cccc(OCC5CCCO5)c4C3=O)cc2)cn1` (stereo not drawn) [Example 5, 2-(4-(1-methyl-1H-pyrazol-4-yl)benzyl)-7-((tetrahydrofuran-2-yl)methoxy)isoindolin-1-one], for which the EC50 came out at 20 nM and the “activity (%) at 10 μM” value was determined as 102%.
Taken in the same sequence, the figures for `Cn1cc(-c2ccc(CN3Cc4cccc(Oc5c(F)cccc5C#N)c4C3=O)cc2)cn1` [Example 6, 3-fluoro-2-((2-(4-(1-methyl-1H-pyrazol-4-yl)benzyl)-3-oxo-2,3-dihydro-1H-isoindol-4-yl)oxy)benzonitrile] were 31 nM and 90%.
The matching figures for `Cn1cc(-c2ccc(CN3Cc4cccc(OCCN5CCCC5)c4C3=O)cc2)cn1` [Example 8, 2-(4-(1-methyl-1H-pyrazol-4-yl)benzyl)-7-(2-(pyrrolidin-1-yl)ethoxy)isoindolin-1-one]: 33 nM and 99%.
For the compound `Cn1cc(-c2ccc(CN3Cc4cccc(Oc5c(Cl)cccc5C#N)c4C3=O)cc2)cn1` [Example 9, 3-chloro-2-((2-(4-(1-methyl-1H-pyrazol-4-yl)benzyl)-3-oxo-2,3-dihydro-1H-isoindol-4-yl)oxy)benzonitrile], the EC50 was 34 nM and the “activity (%) at 10 μM” value is 93%.
Taken in the same sequence, the figures for `Cn1cc(-c2ccc(CN3Cc4cccc(Oc5c(F)cc([N+](=O)[O-])cc5Cl)c4C3=O)cc2)cn1` [Example 10, 7-(2-chloro-6-fluoro-4-nitrophenoxy)-2-(4-(1-methyl-1H-pyrazol-4-yl)benzyl)isoindolin-1-one] were 54 nM and 103%.
Taken in the same sequence, the figures for `Cn1cc(-c2ccc(CN3Cc4cccc(Oc5c(F)cc(N)cc5Cl)c4C3=O)cc2)cn1` [Example 11, 7-(4-amino-2-chloro-6-fluorophenoxy)-2-(4-(1-methyl-1H-pyrazol-4-yl)benzyl)isoindolin-1-one] were 65 nM and 102%.
Taken in the same sequence, the figures for `Cn1cc(-c2ccc(CN3Cc4cccc(Oc5c(F)cccc5Cl)c4C3=O)cc2)cn1` [Example 12, 7-(2-chloro-6-fluorophenoxy)-2-(4-(1-methyl-1H-pyrazol-4-yl)benzyl)isoindolin-1-one] were 36 nM and 57%.
On to `Cn1cc(-c2ccc(CN3Cc4cccc(OC[C@H]5CCCO5)c4C3=O)cc2)cn1` [Example 13, 2-(4-(1-methyl-1H-pyrazol-4-yl)benzyl)-7-((2R)-(tetrahydrofuran-2-yl)methoxy)isoindolin-1-one], for which the EC50 is 43 nM and the “activity (%) at 10 μM” value came out at 102%.
Taken in the same sequence, the figures for `Cn1cc(-c2ccc(CN3Cc4cccc(OCC(=O)N5CCCCC5)c4C3=O)cc2)cn1` [Example 16, 2-(4-(1-methyl-1H-pyrazol-4-yl)benzyl)-7-(2-oxo-2-(piperidin-1-yl)ethoxy)isoindolin-1-one] were 47 nM and 106%.
Taken in the same sequence, the figures for `Cn1cc(-c2ccc(CN3Cc4cccc(OCCO)c4C3=O)cc2)cn1` [Example 17, 7-(2-hydroxyethoxy)-2-(4-(1-methyl-1H-pyrazol-4-yl)benzyl)isoindolin-1-one] were 120 nM and 118%.
Taken in the same sequence, the figures for `Cn1cc(-c2ccc(CN3Cc4cccc(OCCN5CCC(F)(F)CC5)c4C3=O)cc2)cn1` [Example 18, 7-(2-(4,4-difluoropiperidin-1-yl)ethoxy)-2-(4-(1-methyl-1H-pyrazol-4-yl)benzyl)isoindolin-1-one] were 60 nM and 107%.
Regarding `Cn1cc(-c2ccc(CN3Cc4cccc(OCCn5cccn5)c4C3=O)cc2)cn1` [Example 19, 2-(4-(1-methyl-1H-pyrazol-4-yl)benzyl)-7-(2-(H-pyrazol-1-yl)ethoxy)isoindolin-1-one], the EC50 was 110 nM and the “activity (%) at 10 μM” value is 91%.
The matching figures for `Cn1cc(-c2ccc(CN3Cc4cccc(Oc5cccnc5C#N)c4C3=O)cc2)cn1` [Example 20, 3-((2-(4-(1-methyl-1H-pyrazol-4-yl)benzyl)-3-oxo-2,3-dihydro-1H-isoindol-4-yl)oxy)pyridine-2-carbonitrile]: 80 nM and 100%.
As to `Cn1cc(-c2ccc(CN3Cc4cccc(OCCN5CCCCC5)c4C3=O)cc2)cn1` [Example 21, 2-(4-(1-methyl-1H-pyrazol-4-yl)benzyl)-7-(2-(piperidin-1-yl)ethoxy)isoindolin-1-one], the EC50 is 96 nM and the “activity (%) at 10 μM” value came out at 105%.
Taken in the same sequence, the figures for `Cc1n[nH]c(C)c1Oc1cccc2c1C(=O)N(Cc1ccc(-c3cnn(C)c3)cc1)C2` [Example 22, 7-((3,5-dimethyl-1H-pyrazol-4-yl)oxy)-2-(4-(1-methyl-1H-pyrazol-4-yl)benzyl)isoindolin-1-one] were 190 nM and 103%.
In the case of `O=C(NCC1CCCO1)c1ccc(CN2Cc3cccc(OCC4CCCO4)c3C2=O)cc1` (stereo not drawn) [Example 38, 4-((1-oxo-7-((tetrahydrofuran-2-yl)methoxy)-1,3-dihydro-2H-isoindol-2-yl)methyl)-N-((tetrahydrofuran-2-yl)methyl)benzamide], the EC50 came out at 44 nM and the “activity (%) at 10 μM” value is 118%.
On to `Cl.N#Cc1cccc(F)c1Oc1cccc2c1C(=O)N(Cc1ccc(-c3ccn[nH]3)cc1)C2` [Example 42, 3-fluoro-2-((3-oxo-2-(4-(1H-pyrazol-5-yl)benzyl)-2,3-dihydro-1H-isoindol-4-yl)oxy)benzonitrile hydrochloride], for which the EC50 was found to be 85 nM and the “activity (%) at 10 μM” value is reported as 107%.
For `O=C1c2c(cccc2OCC2CCCO2)CN1Cc1ccc(-n2cccn2)cc1` (stereo not drawn) [Example 53, 2-(4-(1H-pyrazol-1-yl)benzyl)-7-((tetrahydrofuran-2-yl)methoxy)isoindolin-1-one], the EC50 was 270 nM and the “activity (%) at 10 μM” value worked out at 90%.
The matching figures for `Cn1cc(-c2ccc(CN3Cc4nccc(OCC5CCCO5)c4C3=O)cc2)cn1` (stereo not drawn) [Example 59, 6-(4-(1-methyl-1H-pyrazol-4-yl)benzyl)-4-((tetrahydrofuran-2-yl)methoxy)-6,7-dihydro-5H-pyrrolo[3,4-b]pyridin-5-one]: 57 nM and 136%.
The matching figures for `O=C1c2c(OCC3CCCO3)ccnc2CN1Cc1ccc(-n2cccn2)cc1` (stereo not drawn) [Example 60, 6-(4-(1H-pyrazol-1-yl)benzyl)-4-((tetrahydrofuran-2-yl)methoxy)-6,7-dihydro-5H-pyrrolo[3,4-b]pyridin-5-one]: 320 nM and 115%.
Taken in the same sequence, the figures for `O=C1c2c(ccnc2OCC2CCCO2)CN1Cc1ccc(-n2cccn2)cc1` (stereo not drawn) [Example 61, 2-(4-(1H-pyrazol-1-yl)benzyl)-4-((tetrahydrofuran-2-yl)methoxy)-1H-pyrrolo[3,4-c]pyridin-3(2H)-one] were 37 nM and 113%.
On to `Cn1cc(-c2ccc(CN3Cc4cccc(Oc5c(F)cccc5C#N)c4C3=O)cn2)cn1` [Example 65, 3-fluoro-2-((2-((6-(1-methyl-1H-pyrazol-4-yl)pyridin-3-yl)methyl)-3-oxo-2,3-dihydro-1H-isoindol-4-yl)oxy)benzonitrile], for which the EC50 was 63 nM and the “activity (%) at 10 μM” value is given as 76%.
Consider `N#Cc1cccc(F)c1Oc1cccc2c1C(=O)N(Cc1ccc(-n3cccn3)cc1)C2` [Example 66, 3-fluoro-2-((3-oxo-2-(4-(1H-pyrazol-1-yl)benzyl)-2,3-dihydro-1H-isoindol-4-yl)oxy)benzonitrile], for which the EC50 was determined as 69 nM and the “activity (%) at 10 μM” value is given as 101%.
In the case of `Cn1cc(-c2ccc(CN3Cc4cccc(Oc5c(F)cccc5C#N)c4C3=O)c(Cl)c2)cn1` [Example 68, 2-((2-(2-chloro-4-(1-methyl-1H-pyrazol-4-yl)benzyl)-3-oxo-2,3-dihydro-1H-isoindol-4-yl)oxy)-3-fluorobenzonitrile], the EC50 worked out at 72 nM and the “activity (%) at 10 μM” value is on record as 109%.
